Data: patent US9914697B2, “Methods for making polymorphs of bromfenac sodium and bromfenac sodium formulations” (Johnson Matthey Public Limited Company, priority 2009, dated 2018)

Experiments:
Assay type in all cases: physicochemical
[1] = Stability of Form I polymorph on exposure to water vapour (XRPD and water content analyses); conditions: moisturized alongside a dish of water in a bag sealed under nitrogen for 19 h
Description: Sodium salt of 2-amino-3-(4-bromobenzoyl)phenylacetic acid, Form I polymorph (0.6 g) was placed in a drying dish alongside a dish containing water (20 g) in a plastic bag. The bag was sealed under nitrogen and the product allowed to moisturize for 19 h.

[2] = Rate of dissolution in water; conditions: compared with bromfenac sodium Form I or other hydrated forms
[3] = Water adsorption under wet nitrogen hydration conditions in vacuum oven; conditions: 30-35° C. vacuum oven (5 mm Hg), 17 hours
[4] = Stability of polymorph towards atmospheric moisture (hydration and conversion); conditions: must be protected from atmospheric moisture, hydrates to Form I
Source text: If so desired, the above-described procedures for producing bromfenac sodium Form I may be adapted and modified so as to provide a product that is a mixture of bromfenac sodium Form I and bromfenac sodium Form II. Bromfenac sodium Form II is a polymorph that is believed to be a monohydrate of bromfenac sodium, i.e., containing one water molecule per molecule of bromfenac sodium, and characterized by a powder x-ray diffraction pattern having main peaks expressed as 2-theta at about 11.3, 14.4, 16.5, 17.3, 18.5, 19.4, 20.7, 21.0, 22.7, 29.0, 31.8, 34.1 and 36.1 degrees. Drying the crystalline product initially obtained in the crystallization process described above under a vacuum results in the removal of some water of hydration from the sesquihydrate and the formation of the Form II polymorph, as evidenced by XRPD. The vacuum drying conditions may be adjusted so as to vary the Form II polymorph content of the product obtained. For example, higher drying temperatures, lower pressures, and increased drying times will generally all increase the amount of bromfenac sodium Form II present. It is believed that such parameters may be selected so as to provide bromfenac sodium Form II in substantially pure form (i.e., substantially free of any bromfenac sodium Form I or any other polymorph). […]

Compound: Nc1c(CC(=O)[O-])cccc1C(=O)c1ccc(Br)cc1.Nc1c(CC(=O)[O-])cccc1C(=O)c1ccc(Br)cc1.O.O.O.[Na+].[Na+] [Bromfenac sodium Form I, sodium salt of 2-amino-3-(4-bromobenzoyl)phenylacetic acid, sesquihydrate]
- change in polymorphic form (XRPD and water content analyses) [1]: no change in polymorphic form

Compound: Nc1c(CC(=O)[O-])cccc1C(=O)c1ccc(Br)cc1.[Na+] [Bromfenac sodium Form III, sodium salt of 2-amino-3-(4-bromobenzoyl)phenylacetic acid]
- rate of dissolution in water [2]: significantly lower
- water content of sample after wet nitrogen hydration conditions [3]: did not change

Compound: Nc1c(CC(=O)[O-])cccc1C(=O)c1ccc(Br)cc1.[Na+] [Bromfenac sodium Form II, sodium salt of 2-amino-3-(4-bromobenzoyl)phenylacetic acid]
- stability of the polymorph [4]: not stable
